Biological target: T1, FXR (farnesoid-X-receptor; pCMVSPORT-FXR) (Homo sapiens, UniProt Q96RI1)
T1 construct: gene NR1H4; FXR expressed from pCMVSPORT-FXR, co-transfected with pSG5-RXR in HepG2 cells; p(hsp27)TKLUC luciferase reporter (IR1 element), Renilla normalisation
T1 sequence (Q96RI1 1-486): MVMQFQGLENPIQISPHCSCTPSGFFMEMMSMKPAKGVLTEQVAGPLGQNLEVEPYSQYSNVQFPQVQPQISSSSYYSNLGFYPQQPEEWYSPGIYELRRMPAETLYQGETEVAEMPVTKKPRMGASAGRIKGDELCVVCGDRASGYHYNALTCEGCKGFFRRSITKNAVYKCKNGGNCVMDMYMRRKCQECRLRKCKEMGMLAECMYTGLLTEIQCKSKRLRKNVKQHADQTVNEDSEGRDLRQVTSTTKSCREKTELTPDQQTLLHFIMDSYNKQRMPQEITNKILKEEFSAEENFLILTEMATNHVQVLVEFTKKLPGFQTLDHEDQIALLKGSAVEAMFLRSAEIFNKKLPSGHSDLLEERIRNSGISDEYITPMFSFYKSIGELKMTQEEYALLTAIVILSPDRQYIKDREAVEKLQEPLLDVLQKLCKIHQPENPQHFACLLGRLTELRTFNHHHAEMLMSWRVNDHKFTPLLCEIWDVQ
T1 sequence (P19793 1-462 partner): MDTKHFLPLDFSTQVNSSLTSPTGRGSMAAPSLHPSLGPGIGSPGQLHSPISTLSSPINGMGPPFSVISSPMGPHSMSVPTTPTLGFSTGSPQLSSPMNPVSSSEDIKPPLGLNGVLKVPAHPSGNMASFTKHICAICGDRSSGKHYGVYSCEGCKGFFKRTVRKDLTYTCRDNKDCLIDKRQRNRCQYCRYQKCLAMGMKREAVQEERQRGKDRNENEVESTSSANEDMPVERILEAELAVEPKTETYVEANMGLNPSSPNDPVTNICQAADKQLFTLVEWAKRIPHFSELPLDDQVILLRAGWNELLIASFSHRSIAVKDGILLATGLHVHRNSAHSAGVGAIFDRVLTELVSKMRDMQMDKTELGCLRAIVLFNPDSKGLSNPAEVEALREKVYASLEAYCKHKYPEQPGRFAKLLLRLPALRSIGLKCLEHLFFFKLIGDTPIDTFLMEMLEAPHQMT
Assay: luciferase reporter transactivation assay in transfected HepG2, antagonist mode
Type: cell-based

EC50: ~50 µM
SMILES: C=C1[C@@H](O)CC[C@@]2(C)[C@H]1CCC1=C3CC[C@H]([C@H](C)CC[C@H](CC)C(C)C)[C@@]3(C)CC[C@@H]12 [compound 1, theonellasterol]

— publication PMC3509528, “Preliminary Structure-Activity Relationship on Theonellasterol, a New Chemotype of FXR Antagonist, from the Marine Sponge Theonella swinhoei” (Marine Drugs, 2012)
